Measured values: PubChem BioAssay AID256 (DTP/NCI, 2004)
Toxic doses and inconclusive results are not listed. Rule for the calls: active = survival T/C of 150% or more; inactive = T/C below 125% in these data.

Test system: CD2F1 mice, L1210 leukemia ip, survival T/C
Assay: NCI In Vivo Anticancer Drug Screen. Data for tumor model L1210 Leukemia (intraperitoneal) in CD2F1 (CDF1) mice
Settings: endpoint: mean survival time, higher = longer survival
Summary of the method: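 Implant tumor; dose compound or vehicle; measure endpoint in both groups; report treated divided by control.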

[1] = dose: 12.5 mg/kg/injection, schedule: Q01DX009 (ip), vehicle: saline with Tween-80
[2] = dose: 100.0 mg/kg/injection, schedule: Q01DX009 (ip), vehicle: saline with Tween-80
[3] = dose: 200.0 mg/kg/injection, schedule: Q01DX009 (ip), vehicle: saline with Tween-80
[4] = dose: 25.0 mg/kg/injection, schedule: Q01DX009 (ip), vehicle: saline with Tween-80
[5] = dose: 50.0 mg/kg/injection, schedule: Q01DX009 (ip), vehicle: saline with Tween-80
[6] = dose: 200.0 mg/kg/injection, schedule: Q04DX003 (ip), vehicle: saline
[7] = dose: 400.0 mg/kg/injection, schedule: Q04DX003 (ip), vehicle: saline
[8] = dose: 100.0 mg/kg/injection, schedule: Q04DX002 (ip), vehicle: saline with Tween-80
[9] = dose: 200.0 mg/kg/injection, schedule: Q04DX002 (ip), vehicle: saline with Tween-80
[10] = dose: 100.0 mg/kg/injection, schedule: Q04DX003 (ip), vehicle: saline

Measured: T/C

NC1=C(Cl)C(=O)c2ccccc2C1=O
inactive: dose: 100.0 mg/kg/injection, schedule: Q04DX003 (ip), vehicle: saline with Tween-80 102 % of control

O=C1CSC(=S)N1/N=C/c1ccc(F)cc1
inactive: dose: 75.0 mg/kg/injection, schedule: Q01DX001 (ip), vehicle: other 100 % of control | dose: 150.0 mg/kg/injection, schedule: Q01DX001 (ip), vehicle: other 102 % of control | dose: 300.0 mg/kg/injection, schedule: Q01DX001 (ip), vehicle: other 98 % of control

COc1ccc(/C=N\NC(=O)CNC(=O)Nc2cccc(C(F)(F)F)c2)cc1OC
inactive: [1] 87 % of control | [2] 96 % of control | [3] 96 % of control

CNC(=S)C(=S)NC
inactive: dose: 6.25 mg/kg/injection, schedule: Q01DX009 (ip), vehicle: saline with Tween-80 100 % of control | [1] 97 % of control | [4] 95 % of control | dose: 50.0 mg/kg/injection, schedule: Q04DX003 (ip), vehicle: saline with Tween-80 93 % of control

O=C1OCCC1=P(c1ccccc1)(c1ccccc1)c1ccccc1
inactive: [5] 100 % of control | [2] 96 % of control | [3] 96 % of control

O=[N+]([O-])c1ccc(N/N=C/c2ccc(CO)cc2)c([N+](=O)[O-])c1
inactive: [6] 91 % of control | [7] 92 % of control

NNC(=O)c1ccc(N)cc1
inactive: dose: 100.0 mg/kg/injection, schedule: Q04DX003 (ip), vehicle: Klucel (hydroxypropylcellulose) (HPC) 95 % of control

O=C(OCc1ccccc1)C1CC1
inactive: dose: 25.0 mg/kg/injection, schedule: Q01DX005 (ip), vehicle: saline with Tween-80 89 % of control | [4] 96 % of control | dose: 50.0 mg/kg/injection, schedule: Q01DX005 (ip), vehicle: saline with Tween-80 97 % of control | [5] 104 % of control | dose: 50.0 mg/kg/injection, schedule: Q04DX002 (ip), vehicle: saline with Tween-80 97 % of control | dose: 100.0 mg/kg/injection, schedule: Q01DX005 (ip), vehicle: saline with Tween-80 93 % of control | [2] 100 % of control | [8] 102 % of control | dose: 200.0 mg/kg/injection, schedule: Q01DX005 (ip), vehicle: saline with Tween-80 93 % of control | [3] 93 % of control | [9] 102 % of control

CN(C)OC(=O)Nc1ccc([N+](=O)[O-])cc1
inactive: [8] 97 % of control | [9] 112 % of control | dose: 400.0 mg/kg/injection, schedule: Q04DX002 (ip), vehicle: saline with Tween-80 108 % of control

NCCCNCCNCCCN
inactive: dose: 25.0 mg/kg/injection, schedule: Q04DX003 (ip), vehicle: saline 101 % of control | dose: 50.0 mg/kg/injection, schedule: Q04DX003 (ip), vehicle: saline 101 % of control | [10] 97 % of control

CNC(=O)OCCN(C)OC
inactive: [10] 95 % of control | [6] 98 % of control | [7] 93 % of control

O=c1[nH]c2cc(Br)ccc2c2ccc(Br)cc12
inactive: dose: 50.0 mg/kg/injection, schedule: Q01DX001 (ip), vehicle: carboxymethylcellulose (CMC) 95 % of control | dose: 100.0 mg/kg/injection, schedule: Q01DX001 (ip), vehicle: carboxymethylcellulose (CMC) 98 % of control | dose: 200.0 mg/kg/injection, schedule: Q01DX001 (ip), vehicle: carboxymethylcellulose (CMC) 101 % of control | dose: 400.0 mg/kg/injection, schedule: Q01DX001 (ip), vehicle: carboxymethylcellulose (CMC) 104 % of control
